Test results published in patent US6653478B2, “Substituted benzimidazol-2-ones as vasopressin receptor antagonists and neuropeptide Y modulators” (Ortho-McNeil Pharmaceutical, Inc., priority 2000, dated 2003).

Assays:
Parameters in all cases: expressed in transfected cells; host or cells: HEK-293 (membranes)
[1] = molecular target: human V1a receptor (Homo sapiens, UniProt P37288); experiment: V1a binding assay (3H-AVP displacement, HEK-293 membranes); conditions: for inhibition at 1 µM: 1.0 μM compound, read-out: V1a@1.0, % Inh
Sequence of human V1a receptor (P37288 whole entry): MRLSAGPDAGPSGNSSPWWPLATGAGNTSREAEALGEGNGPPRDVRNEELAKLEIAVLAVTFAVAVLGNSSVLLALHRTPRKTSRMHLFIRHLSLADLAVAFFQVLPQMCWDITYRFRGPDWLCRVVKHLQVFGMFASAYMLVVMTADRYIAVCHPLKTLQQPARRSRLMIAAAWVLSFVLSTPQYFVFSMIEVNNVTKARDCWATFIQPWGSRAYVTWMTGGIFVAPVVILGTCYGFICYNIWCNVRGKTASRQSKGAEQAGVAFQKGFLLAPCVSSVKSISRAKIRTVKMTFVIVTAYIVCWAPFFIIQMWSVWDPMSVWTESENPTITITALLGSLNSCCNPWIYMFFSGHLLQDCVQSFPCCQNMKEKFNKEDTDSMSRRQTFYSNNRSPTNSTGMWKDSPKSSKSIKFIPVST
Protocol: (§1) V1a, V1b or V2 Binding Assay
(§2) Receptor binding studies were performed using recombinant human V1a, V1b or V2 receptors. Cellular membranes were harvested from HEK-293 cells transfected to express either the V1a, V1b or V2 receptors. Compounds were evaluated for their ability to displace ^3H-arginine vasopressin (^3H-AVP; specific activity 40-87 Ci/mmol; NEN Life Sciences, Boston, Mass.). Compounds were solubilized in dimethylsulfoxide (DMSO) and diluted to working concentration of 10% DMSO with assay buffer (50 mM Tris, 5 mM MgCl2, 0.1% BSA, pH 7.5). Assay buffer was supplemented with several protease inhibitors (1 mM Pefabloc, 5 μg/ml aprotinin/leupeptin/pepstatin A, 50 μg/ml bacitracin; Sigma Chemical, St. Louis, Mo.). Non-specific binding was determined using 1.25 μM arginine vasopressin (AVP; Peninsula Labs, Belmont, Calif.). Assay reagents and test compounds were added to 96-well round bottom polypropylene plates (145 μl buffer, 5 μl compound in 10% DMSO, 25 μl buffer containing 10,000 cpm tracer, 25 μl cell membrane). After incubation for 1 hour at room temperature, the well contents were aspirated across a Unifilter GF/C plate (Packard Instrument, Downers Grove, Ill.) which had been presoaked in 0.3% polyethyleneimine to prevent peptide sticking. The wells were washed repeatedly with cold saline containing 0.05% Tween 20. The plate was then dried and 25 μl Microscint-20 cocktail (Packard Instruments) added to each well. The plates were sealed and counted on a TopCount scintillation counter (Packard Instruments) using quench correction.

[2] = molecular target: T1, human V1b receptor (Homo sapiens, UniProt P47901); experiment: V1b binding assay (3H-AVP displacement, HEK-293 membranes); conditions: for inhibition at 1 µM: 1.0 μM compound, read-out: V1b@1.0, % Inh
T1 sequence (P47901 1-424): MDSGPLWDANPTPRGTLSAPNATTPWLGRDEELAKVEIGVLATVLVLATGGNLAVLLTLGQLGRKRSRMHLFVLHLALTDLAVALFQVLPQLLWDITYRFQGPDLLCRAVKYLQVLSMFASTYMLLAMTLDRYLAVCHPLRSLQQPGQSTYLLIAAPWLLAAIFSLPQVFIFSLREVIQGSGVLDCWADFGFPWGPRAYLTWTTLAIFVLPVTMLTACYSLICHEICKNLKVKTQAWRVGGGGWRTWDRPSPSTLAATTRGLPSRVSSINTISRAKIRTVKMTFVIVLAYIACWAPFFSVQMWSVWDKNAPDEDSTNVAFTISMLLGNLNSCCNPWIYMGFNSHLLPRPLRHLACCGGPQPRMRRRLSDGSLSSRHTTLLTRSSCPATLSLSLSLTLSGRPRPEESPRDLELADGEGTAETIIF
Protocol: as §1, §2

[3] = molecular target: human V2 receptor (Homo sapiens, UniProt P30518); experiment: V2 binding assay (3H-AVP displacement, HEK-293 membranes); conditions: 1.0 μM compound; for inhibition at 1 µM: read-out: V2@1.0, % Inh; for V2@1.0, % Inh: 1 µM
Sequence of human V2 receptor (P30518 whole entry): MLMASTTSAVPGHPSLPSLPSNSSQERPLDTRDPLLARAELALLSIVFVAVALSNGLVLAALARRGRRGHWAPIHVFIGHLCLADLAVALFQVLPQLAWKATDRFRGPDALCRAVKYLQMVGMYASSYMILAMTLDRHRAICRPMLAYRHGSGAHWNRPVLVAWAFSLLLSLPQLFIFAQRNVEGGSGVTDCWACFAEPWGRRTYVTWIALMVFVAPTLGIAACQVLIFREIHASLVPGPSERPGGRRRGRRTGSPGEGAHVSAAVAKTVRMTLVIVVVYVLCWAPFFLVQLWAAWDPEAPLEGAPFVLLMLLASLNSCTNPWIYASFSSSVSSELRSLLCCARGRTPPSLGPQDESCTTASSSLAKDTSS
Protocol: as §1, §2

| Compound | IC50 [1] [nM] | inhibition at 1 µM [2] [%] | inhibition at 1 µM [3] [%] | inhibition at 1 µM [1] [%] | inhibition at 0.5 µM ([1]; 0.5 μM compound, read-out: V1a % Inh @0.5) [%] | V2@1.0, % Inh [3] [%] | IC50 [2] [nM] |
| --- | --- | --- | --- | --- | --- | --- | --- |
| O=c1n(CCCN2CCCCC2)c2ccccc2n1C1CCN(C(=S)NCc2cccs2)CC1 [Compound 160] | 230 | 27 | 0 | – | – | – | – |
| CC(NC(=S)N1CCC(n2c(=O)n(CCCN3CCCCC3)c3ccccc32)CC1)c1ccc(F)cc1 (stereo not drawn) [Compound 137] | 91 | 41 | 0 | – | – | – | – |
| O=c1n(CCCN2CCCCC2)c2ccccc2n1C1CCN(C(=S)Nc2ccc(N3CCOCC3)cc2)CC1 [Compound 153] | – | 0 | 0 | 0 | – | – | – |
| CC(CN1CCCCC1)Cn1c(=O)n(C2CCN(C(=S)NC(c3ccccc3)c3ccccc3)CC2)c2ccccc21 (stereo not drawn) [Compound 146] | – | 33 | 0 | 85 | 15 | – | – |
| CC(C)N(CCCn1c(=O)n(C2CCN(C(=S)NC(c3ccccc3)c3ccccc3)CC2)c2ccccc21)C1CCCCC1 [Compound 177] | 147 | 31 | – | – | – | – | – |
| O=c1n(CCCN2CCCCC2)c2ccccc2n1C1CCN(C(=S)Nc2cccnc2)CC1 [Compound 154] | – | 0 | 3 | 7 | – | – | – |
| O=c1n(CCCN2CCCCC2)c2ccccc2n1C1CCN(C(=S)NC2CCCCC2)CC1 [Compound 125, 1-[(N1-piperidinocarbothioylcyclohexylamino)-4-yl]-3-(3-N-piperidinylpropyl)-1,3-dihydrobenzimidazol-2-one] | 390 | 35 | 0 | – | – | – | – |
| COc1cccc(CNC(=S)N2CCC(n3c(=O)n(CCCN4CCCC4)c4ccccc43)CC2)c1OC [Compound 123, 1-[(N1-Piperidinocarbothioyl-(2,3-dimethoxybenzyl)amino)-4-yl]-3-(3-pyrrolidinylpropyl)-1,3-dihydrobenzimidazol-2-one] | 430 | 31 | 2 | – | – | – | – |
| O=C1CCCN1CCCn1c(=O)n(C2CCN(C(=S)NC(c3ccccc3)c3ccccc3)CC2)c2ccccc21 [Compound 175] | – | 23 | – | 61 | – | – | – |
| O=c1n(CCCN2CCCCC2)c2ccccc2n1C1CCN(C(=S)NCc2ccc(Cl)cc2Cl)CC1 [Compound 164] | 86 | 35 | 5 | – | – | – | – |
| O=c1n(CCCN2CCCCC2)c2ccccc2n1C1CCN(C(=S)NCc2ccccc2-c2ccccc2)CC1 [Compound 127] | 22 | 45 | – | – | – | 0 | – |
| O=c1n(CCCN2CCCCCC2)c2ccccc2n1C1CCN(C(=S)NC(c2ccccc2)c2ccccc2)CC1 [Compound 141] | – | 29 | 0 | 83 | – | – | – |
| O=c1n(CCCN2CCCCC2)c2ccccc2n1C1CCN(C(=S)NCc2ccco2)CC1 [Compound 158] | – | 18 | 42 | 55 | – | – | – |
| O=c1n(CCCN2CCCCC2)c2ccccc2n1C1CCN(C(=S)NCc2ccc(Cl)c(Cl)c2)CC1 [Compound 174] | 420 | 34 | 0 | – | – | – | – |
| Cc1ccc2c(c1)n(CCCN1CCCCC1)c(=O)n2C1CCN(C(=S)NC(c2ccccc2)c2ccccc2)CC1 [Compound 172] | 72 | – | 6 | – | – | – | 700 |
| O=c1n(CCCN2CCCCCCC2)c2ccccc2n1C1CCN(C(=S)NC(c2ccccc2)c2ccccc2)CC1 [Compound 142] | 68 | 56 | 4 | – | – | – | – |
| O=c1n(CCCN2CCCCC2)c2ccccc2n1C1CCN(C(=S)NCCCc2ccccc2)CC1 [Compound 133, 1-[(N1-piperidinocarbothioylphenpropylamino)-4-yl]-3-(3-N-piperidinylpropyl)-1,3-dihydrobenzimidazol-2-one] | 69 | 42 | 4 | – | – | – | – |

| Compound | IC50 [1] [nM] | inhibition at 1 µM [2] [%] | inhibition at 1 µM [3] [%] | inhibition at 1 µM [1] [%] | inhibition at 0.5 µM ([1]; 0.5 μM compound, read-out: V1a % Inh @0.5) [%] | V2@1.0, % Inh [3] [%] | IC50 [2] [nM] |
| --- | --- | --- | --- | --- | --- | --- | --- |
| CC(C)(C)NC(=S)N1CCC(n2c(=O)n(CCCN3CCCCC3)c3ccccc32)CC1 [Compound 130, 1-[(N1-piperidinocarbothioyl-butylamino)-4-yl]-3-(3-N-piperidinylpropyl)-1,3-dihydrobenzimidazol-2-one] | – | 26 | 2 | 19 | – | – | – |
| O=c1n(CCCN2CCCCC2)c2ccccc2n1C1CCN(C(=S)NCc2ccc(Cl)cc2)CC1 [Compound 124, 1-[(N1-piperidinocarbothioyl-4-chlorobenzylamino)-4-yl]-3-(3-N-piperidinylpropyl)-1,3-dihydrobenzimidazol-2-one] | 29 | 44 | 3 | – | – | – | – |
| O=c1n(Cc2ccc(-c3csnn3)cc2)c2ccccc2n1C1CCN(C(=S)NC(c2ccccc2)c2ccccc2)CC1 [Compound 167] | – | 1 | 8 | 12 | – | – | – |
| O=c1n(CCCN2CCCCC2)c2cc(C(F)(F)F)ccc2n1C1CCN(C(=S)NC(c2ccccc2)c2ccccc2)CC1 [Compound 121] | 330 | 39 | 3 | – | – | – | – |
| CC(CN1CCCC1)Cn1c(=O)n(C2CCN(C(=O)NC(c3ccccc3)c3ccccc3)CC2)c2ccccc21 (stereo not drawn) [Compound 149] | 42 | 44 | 0 | – | – | – | – |
| O=c1n(CCCN2CCCCC2)c2ccccc2n1C1CCN(C(=S)NCc2ccccc2-c2ccccc2)CC1 [Compound 169] | 12 | – | – | – | – | 4 | 1720 |
| CN(C)c1ccc(CNC(=S)N2CCC(n3c(=O)n(CCCN4CCCCC4)c4ccccc43)CC2)cc1 [Compound 165] | – | 20 | 3 | 40 | – | – | – |
| O=c1n(CCCN2CC=CCC2)c2ccccc2n1C1CCN(C(=S)NC(c2ccccc2)c2ccccc2)CC1 [Compound 143] | 41 | 65 | 8 | – | – | – | – |
| O=c1n(CCCN2CCCCC2)c2ccccc2n1C1CCN(C(=S)NCc2ccc3c(c2)OCO3)CC1 [Compound 163] | 150 | 27 | 0 | – | – | – | – |
| O=c1n(CCCN2CCCCC2)c2ccccc2n1C1CCN(C(=S)Nc2ccc3c(c2)OCO3)CC1 [Compound 156] | 450 | 22 | 3 | – | – | – | – |
| CC(C)(NC(=S)N1CCC(n2c(=O)n(CCCN3CCCCC3)c3ccccc32)CC1)c1ccccc1 [Compound 173] | 250 | 43 | 0 | – | – | – | – |
| CC1CCCCN1CCCn1c(=O)n(C2CCN(C(=S)NC(c3ccccc3)c3ccccc3)CC2)c2ccccc21 (stereo not drawn) [Compound 181] | 23 | – | – | – | – | – | 150 |
| CCCCN(CC)CCCn1c(=O)n(C2CCN(C(=S)NC(c3ccccc3)c3ccccc3)CC2)c2ccccc21 [Compound 178] | 90 | 43 | – | – | – | – | – |
| O=C1CCCCN1CCCn1c(=O)n(C2CCN(C(=S)NC(c3ccccc3)c3ccccc3)CC2)c2ccccc21 [Compound 176] | – | 31 | – | 59 | – | – | – |
| CCC1CCN(CCCn2c(=O)n(C3CCN(C(=S)NC(c4ccccc4)c4ccccc4)CC3)c3ccccc32)C(C)C1 (stereo not drawn) [Compound 180] | 67 | 58 | – | – | – | – | – |
| CCN(CCCn1c(=O)n(C2CCN(C(=S)NC(c3ccccc3)c3ccccc3)CC2)c2ccccc21)C1CCCCC1 [Compound 179] | 145 | 65 | – | – | – | – | – |
